Assay results reported in patent US20090305994A1, “Compounds Modulating Vegf Receptor and Uses Thereof” (priority 2005, published 2009).
No end group written: not given here.

What was measured:
WKY rats = test: Ischemic hindlimb model, digital angiographies and blood flow determination; assay type: in vivo, rat; conditions: 14 days
VEGF receptors = VEGF receptors binding assay ([125I]-VEGF competition on BAEC membranes); set-up: species or system bovine
Description: VEGF receptors binding and activation. a) VEGF competitive binding on BAEC. 1 μg of membrane protein was plated with QK and [^125I]-VEGF (500000 cpm, 10^−10 M). b) KDR activation. After stimulation total KDR was immunoprecipitated from a whole-cell protein extracts and phospho-tyrosine was visualized by a specific antibody, anti-rabbit HRP-conjugated secondary antibody and standard chemiluminescence. c) Flt-1 activation. After stimulation total Flt-1 was immunoprecipitated from a whole-cell protein extracts and phospho-tyrosine was visualized by specific antibody, anti-rabbit HRP-conjugated secondary antibody and standard chemiluminescence.
VEGF receptors binding assay. Cells were homogenized in lysis buffer (12.5 mM Tris pH 6.8, 5 mM EDTA, 5 mM EGTA) and membranes were separated from the cytosol fraction by centrifugation. Membranes were suspended in binding buffer (75 mM Tris, 12.5 mM MgCl2, 2 mM EDTA) and an equal amount of membrane protein (1 μg) was plated in 96 well plates with QK (10^−13 to 10^−8 M) and [^125I]-VEGF (Amersham). VEGF binding was evaluated with a y-counter.
VEGF receptors binding assay. To verify the biological behavior of QK peptide, we tested its ability to compete for the binding sites of VEGF on cell membranes (FIG. 1a). We competed membranes, obtained from isolated BAEC, with iodinated VEGF and then with increasing amount of QK.

ERK1/2 = ERK1/2 activation in BAEC (western blot); assay type: cell-based, bovine; conditions: serum deprived BAEC, 15 minutes at 37° C.
Description: Effect of QK and VEGF15 on ERK1/2 activation. Serum deprived BAEC were treated with QK (a) or with VEGF 15 (b) in absence or in presence of VEGF165 (100 ng/ml) for 15 minutes at 37° C. and then dissolved in RIPA-SDS buffer. Total ERK1/2 and the phosphorylated form of ERK1/2 were visualized by specific antibodies.
Western blot. Cells were plated on six-well dishes and serum starved overnight. On the next day, cells were treated with different amount of peptide in absence or in presence of VEGF165 for 15 minutes at 37° C. and then dissolved in RIPA-SDS buffer (50 mM Tris-HCl (pH 7.5), 150 mM NaCl, 1% NP-40, 0.25% deoxycholate, 9.4 mg/50 ml sodium orthovanadate, […]). In some experiments, total KDR and Flt-1 were immunoprecipitated from an equal amount of whole-cell protein extracts using protein A/G agarose beads conjugated with antibodies raised against total KDR or Flt-1 (R&D). Proteins from whole-cell extracts or immunocomplexes were resolved by PAGE and transferred to nitrocellulose. Total extracellular signal-regulated kinase 1 and 2 (ERK1/2), serine-tyrosin phosphorylated ERK1/2, phospho-tyrosine (Cell signaling) and phospho-RB (p-RB) (Santacruz) were visualized by specific antibodies, anti-rabbit HRP-conjugated secondary antibody (Santacruz) and standard chemiluminescence (Pierce).
Activation of the proliferative intracellular pathways. We then explored whether QK is able to start the pathways of endothelial cell activation. It is well established that angiogenesis modulate by VEGF is largely ERK1/2 dependent, leading to DNA synthesis and cell proliferation (7). Accordingly, we assessed the effects of QK on this kinase. […] To verify whether ERK1/2 activation to QK results in cell proliferation, we studied cell proliferation indicators such as cell number, DNA synthesis and cyclin activation.

For “KVKFMDVYQRSYCHP (KVKFMDVYQRSYCHP-NH2) [VEGF15, natural peptide reproducing the VEGF helix 17-25, used as control peptide]”, the “BEADS Ischemic to non ischemic” value (WKY rats; dyed beads dilution, muscle ratio, infusion 10^-7 M) was 0.59 ± 0.15, the “ANGIOGRAPHY Number of TFC” value (WKY rats; ischemic hindlimb, chronic intrafemoral artery infusion 10^-7 M) was 38 ± 2 and the “binding to the VEGF receptor” value (VEGF receptors) was “does not bind to the receptor”. For the same sequence, the ERK1/2 activation (ERK1/2) was “had no effect on ERK activation”.
